Reference: patent US6251898A, “Medical use of fluorenone derivatives for treating and preventing brain and spinal injury” (Questcor Pharmaceuticals, Inc., priority 1999, dated 2001)

Test system: neuronal damage caused by global brain ischemia
Assay: Global cerebral ischemia, bilateral carotid occlusion model in gerbils
Type: in vivo, Mongolian gerbils
Excerpt: The surgical and drug treatment procedures used in the animal model of global brain ischemia are described in Example 24. "Global" ischemia occurs when the entire brain is deprived of oxygenated blood, as occurs during crises such as cardiac arrest, suffocation, or carbon monoxide poisoning. It should be noted that the drug treatment was provided only after the ischemic insult had been fully completed (i.e., after the clamps which were used to temporarily close the carotid arteries had been released again). "Post-trauma" treatment offers a much more realistic, and much more difficult and stringent, challenge than other assays in which test animals are pre-treated with a test drug before an ischemic insult begins.
In one set of in vivo tests, the bilateral carotid occlusion model in gerbils was used to evaluate the abilities of a selected compound, GERI-E7, to protect against neuronal damage caused by global brain ischemia. These tests were performed in the laboratory of Dr. Claude Wasterlain, at the Sepulveda Veterans Administration Medical Center, in Los Angeles, Calif.
Adult male Mongolian gerbils were subjected to reversible bilateral carotid occlusion for 5 minutes, according to standard methods (e.g., Wasterlain et al 1992 and 1996). Each gerbil in a test group was then treated with a test compound at either 2 or 20 mg/kg, dissolved in injectable saline and administered intravenously (IV). Control animals were treated with saline. All treatment and control groups had 10 animals per group. Body temperature was maintained throughout the procedure by a heat lamp and rectal probe.
The gerbils were sacrificed 72 hours after surgery, and their brains were perfusion-fixed with paraformaldehyde. Serial sections of the brain were cut and stained with hematoxylin and eosin, and quantitative cell counts of live and dead neurons were made, using light and fluorescence microscopy, in two different parts of the brain that are highly sensitive to ischemic damage: (i) the subiculum, a zone of transition between the parahippocampus and the hippocampus; and (ii) the CA1 portion of the hippocampus. Statistical analysis was performed on all damage scores (non-paired student t test). All evaluations were made using double-blinded methods.

## CCC[C@]12CCC(=O)C=C1c1c(cc(OCC3=NCCO3)c(Cl)c1Cl)C2 [GERI-E7, R(+)-2-[[(5,6-dichloro-2,3,9,9a-tetrahydro-3-oxo-9a-propyl-1H-fluoren-7-yl)-oxy]methyl]oxazoline]
CA1 region of hippocampus, IV after 5 min occlusion, 72 h, 2 or 20 mg/kg, on average
  Reduction of dead or dying neurons in the hippocampus: about 40%
Animal model used
  Reduction of brain damage caused by global brain ischemia: very effective in reducing brain damage
Mainly visual semi-quantitative methods
  Reduction in neuronal damage levels in other brain regions: significant reduction in neuronal damage levels in most of the other areas
Subiculum and CA1, versus saline control, student t test
  Reduction in neuronal damage in both brain regions evaluated: substantial and statistically significant reduction in neuronal damage
subiculum, IV after 5 min occlusion, 72 h, 2 or 20 mg/kg, on average
  Reduction of dead or dying neurons in the subiculum: about 30%
